Results published in paper PMC7892475, “C-Terminal Amination of a Cationic Anti-Inflammatory Peptide Improves Bioavailability and Inhibitory Activity Against LPS-Induced Inflammation” (Frontiers in Immunology, 2021).

What was measured:
[1] = test system: LPS-induced sepsis in C57/BL6 mice; test: LPS-induced murine model of sepsis; assay type: in vivo, mouse
Description: Male C57/BL6 mice (6–8 weeks of age) were purchased from Charles River (Beijing, China). The mice were maintained in a specific-pathogen-free (SPF) environment at 22 ± 1°C with relative 55 ± 10% humidity during the experiments. The assays were performed in conformity with the laws and regulations for live animal treatments at China Agricultural University.
The mice were randomly distributed into three groups (n = 12 each): control, LPS (E. coli, O111:B4, Sigma-Aldrich, USA) treatment, and CTP-NH2 pretreatment followed by LPS treatment (CTP-NH2 + LPS). For the first 7 days, CTP-NH2 (10 mg/kg mouse weight) was injected intraperitoneally once daily. Meanwhile, an equal volume of sterile saline was injected into mice in the control and LPS-treated groups. On day 7, LPS (10 mg/kg mouse weight) was injected intraperitoneally into mice in the LPS and CTP-NH2 + LPS groups to establish the sepsis animal model. The control group was intraperitoneally injected with an equal volume of saline. Sixteen hours after the LPS injection, the mice were euthanized by cervical dislocation, and samples of the […] were collected for analysis.
The mouse liver tissues were fixed in 4% paraformaldehyde, embedded in paraffin and cut into 5-μm-thick sections using an RM2235 microtome (Leica, Germany). The sections were stained with hematoxylin-eosin (H&E), and a DM3000 microscope was used to acquire images. LPS-induced liver injury was evaluated according to the following four categories: […]. The liver injury score was graded on a 0- to 4-point scale: 0, no injury; 1, up to 25% injury in the field; 2, up to 50% injury in the field; 3, up to 75% injury in the field; 4, diffuse injury ([43]).
For immunohistochemical analysis, the sections were blocked with PBS containing 1% w/v BSA for 1 h at room temperature. Afterwards, the sections were incubated with anti-CD177^+ antibody (1:100; Santa, USA). Samples were washed with PBS followed by incubation with horse-radish peroxidase (HRP)-conjugated rabbit anti-goat IgG (1:100; JIR, USA) at 4°C for 1 h. Subsequently, slides were stained with 3,3’-diaminobenzidine (DAB; DAKO, USA) and then counterstained with Harris hematoxylin. Finally, the samples were dehydrated in an alcohol gradient (70-100%) and cleared in xylene. All slides were mounted in neutral balsam.
(§1) The levels of tumor necrosis factor (TNF)-α, interleukin (IL)-6, and IL-1β in cell culture supernatants and the levels of TNF-α, IL-6, and IL-1β in the serum of mice were detected using commercial ELISA kits (eBioscience, San Diego, USA) according to the manufacturer’s instructions. The levels of serum alanine amino transferase (ALT) and aspartate amino transferase (AST) were detected using commercial reagent kits (Nanjing Jiancheng Bioengineering Institute, Nanjing, China). The activity of myeloperoxidase (MPO) in the liver of mice was detected using an ELISA kit (Boster, Wuhan, China) according to the manufacturer’s instructions.

[2] = test system: LPS-stimulated RAW264.7 cells; test: Time of addition experiment (peptide pretreatment, LPS neutralization, post-treatment) in RAW264.7 cells; assay type: cell-based, mouse; conditions: ELISA
Description: To identify the mechanisms underlying the anti-inflammatory effects, three different types of treatments were performed as follow.
Briefly, 10 μg/ml peptide was added to the cell culture medium and incubated with cells for 1 h at 37°C Afterwards, the RAW 264.7 cells were washed with PBS and cultured with fresh medium containing 100 ng/ml LPS for 12 h at 37°C. After treatment, TNF-α, IL-6, and IL-1β secretion in the cell supernatants was assessed.
The peptides (10 μg/ml) were incubated with 100 ng/ml LPS directly for 1 h at 37°C. RAW 264.7 cells were stimulated with these mixtures for 12 h at 37°C. Afterwards, the TNF-α, IL-6 and IL-1β levels in the cell supernatants were assessed.
Briefly, 100 ng/ml LPS was added to the cell culture medium and incubated with cells for 1 h at 37°C. Afterwards, the RAW 264.7 cells were washed with PBS and cultured with fresh medium containing 10 μg/ml peptides for 12 h at 37°C. Afterwards, the TNF-α, IL-6, and IL-1β levels in the cell supernatants were assessed.
as §1

[3] = LPS neutralization, chromogenic end-point Tachypleus Amebocyte Lysate (TAL) assay; assay type: binding, E. coli; conditions: chromogenic TAL assay, LPS 1.0 U/ml, 0 to 64 μg/ml peptide
Description: The neutralization of LPS by the peptides was assessed through a quantitative Chromogenic End-point Tachypleus Amebocyte Lysate (CE TAL) assay using a QCL-1000 kit (XIAMEN BIOENDO TECHNOLOGY CO., China). LPS (E. coli, O111:B4, Sigma-Aldrich, USA) at a final concentration of 1.0 U/ml was incubated with various concentrations of the peptides (0 to 64 μg/ml final concentration) at 37°C for 15 min. Afterwards, the mixtures were incubated with TAL assay reagent at 37°C; for 6 min, and the absorbance was measured at 540 nm.

[4] = test system: NF-κB signaling pathway in LPS-treated RAW264.7 cells; test: Western blotting of the NF-κB signaling pathway; assay type: cell-based, mouse; conditions: 100 ng/ml LPS 1 h, wash, CTP-NH2 3 h, western blot
Description: RAW264.7 cells plated at a density 1.8 × 10^6 cells/ml were incubated with LPS (100 ng/ml) at 37°C for 1 h. After that, the cells were washed extensively with PBS before being treated with CTP-NH2 for 3 h at 37°C, followed by lysis of the cells. Cytoplasmic and nuclear protein fractions were obtained using NR-PER Nuclear and Cytoplasmic Extraction Reagents (Thermo Fisher Scientific Inc., New Zwaland). The protein concentrations were assessed with a […] (KeyGEN Biotech. Nanjing, China) according to the manufacturer’s instructions. Afterwards, total protein (40 μg protein/lane) was separated on 10% SDS-PAGE gels and then transferred to PVDF membranes (Bio-Rad). Next, the membranes were blocked with 5% non-fat dried-milk containing 0.05% TBST and then immunoblotted with specific primary antibodies against IKK-β, p-IKK-β, IкB-α, p-IкB-α, NF-кB (p65), p-NF-кB (p-p65), and β-actin (Santa Cruz, CA, USA). After being washed with TBST, the membranes were incubated with HRP-conjugated secondary antibodies (HuaAn, Hangzhou, China). A ChemiDoc MP Imaging System (Bio-Rad, Hercules, CA, USA) was used to quantify the density of the specific proteins.

RWGRFLRKIRRFRRKDVT-NH2 [CTP-NH2, C-terminal amidated derivative peptide of CTP]
liver MPO activity ([1]; ELISA, 10 mg/kg i.p. pretreatment, LPS 10 mg/kg i.p., vs LPS-treated mice): significantly reduced this effect
infiltration of CD177+ neutrophils into the liver ([1]; immunohistochemistry, 10 mg/kg i.p. pretreatment, LPS 10 mg/kg i.p., vs LPS-treated group): significantly lower
serum TNF-α, IL-6 and IL-1β levels ([1]; male C57/BL6 mice, 10 mg/kg i.p. once daily 7 days (Figure 8 legend: 6 days), then LPS 10 mg/kg i.p., 16 h, ELISA, vs LPS-treated group): significantly decreased levels of TNF-α
severity of liver injury (H&E, liver injury score) ([1]; male C57/BL6 mice, 10 mg/kg i.p. once daily pretreatment, LPS 10 mg/kg i.p., score 0 to 4): attenuated
serum ALT and AST ([1]; male C57/BL6 mice, 10 mg/kg i.p. once daily pretreatment, LPS 10 mg/kg i.p., vs LPS-treated group): significantly attenuated these effects
TNF-α and IL-6 level, peptide used to pretreat cells or added after LPS induction ([2]; 10 μg/ml peptide 1 h then wash and 100 ng/ml LPS 12 h, or LPS 1 h, wash, then peptide 12 h): reduced the concentration of TNF-α
TNF-α and IL-6 release, peptide incubated with LPS ([2]; 10 μg/ml peptide incubated with 100 ng/ml LPS 1 h at 37°C, mixture on cells 12 h): more potency than CTP
LPS neutralization activity [3]: stronger than that of CTP
phosphorylation of IKK-β, IκB-α and NF-κB [4]: dampened levels of IKK-β
